Measurements as given in patent US8110193B2, “Methods for conditioning a subject for hematopoietic cell transplantation” (City of Hope, priority 2007, dated 2012).

Key:
host T cells = experiment: Apoptosis and yield of residual host T cells in spleen of conditioned mice; assay type: in vivo, mouse (BALB/c); conditions: low-dose (40 or 100 μg/g) SAHA co-injected with anti-CD3
[1] = system: IL-2, IFN-γ, TNF-α, and IL-6; experiment: Serum cytokines after anti-CD3 injection (cytokine storm); assay type: in vivo, mouse (BALB/c)
Excerpt: (§1) C. […] There were seven mice in each group.

[2] = system: IL-2, IFN-γ, TNF-α, and IL-6; experiment: Cytokines in culture supernatant of anti-CD3-stimulated spleen cells (ELISA); assay type: cell-based, mouse (BALB/c); conditions: 24, 48, 72 hours
Experimental: as §1
One of the side effects of anti-CD3-conditioning is the cytokine storm triggered by anti-CD3 activation of T cells. […] After anti-CD3-stimulation, IL-2 concentration peaked at 48 hours, and IFN-γ, TNF-α, and IL-6 all peaked at 72 hours after culture.

[3] = Body temperature and tolerability after anti-CD3 injection

O=C(CCCCCCC(=O)Nc1ccccc1)NO [SAHA, suberoylanilide hydroxamic acid]
apoptosis of host T cells and yield of residual live T cells in spleen (host T cells): did not significantly increase apoptosis of host T cells or reduce the yield of residual live T cells | reduction of serum IL-2, IFN-γ, TNF-α, IL-6 at peak time points vs anti-CD3 alone ([1]; SAHA 40 μg/g co-injected with anti-CD3 5 μg/g): more than 2 fold | serum cytokine reduction compared to SAHA 40 μg/g ([1]; SAHA 200 μg/g co-injected with anti-CD3, data not shown): reductions in serum cytokine levels that were similar | IL-2, IFN-γ, TNF-α, IL-6 production in culture ([2]; 0.5 μM SAHA): reduced cytokine production significantly at all time points | IL-2, IFN-γ, TNF-α, IL-6 production in culture ([2]; 1 μM SAHA): nearly undetectable | hypothermia after anti-CD3 injection ([3]; SAHA 40 μg/g co-injected with anti-CD3): significantly reduced hypothermia | adverse signs ([3]; SAHA 200 μg/g co-injected with anti-CD3): severe diarrhea | mice that died ([3]; SAHA 200 μg/g co-injected, five days after anti-CD3-conditioning): 30%
